For assay [1], the system named is Mixed bacteria: equal mixture of Staphylococcus aureus (ATCC No. 6538), Pseudomonas aeruginosa (ATCC No. 9027), and Escherichia coli (ATCC No. 8739). Nature of the assay: Preservative challenge test against mixed bacteria in anionic protein shampoo. The format is cell-based. Here is the method:
Mixed bacteria challenge tests were performed by adding approximately 1-5×10^6 organisms per gram of formulation, the organisms comprising an equally divided mixture of Staphylococcus aureus (ATCC No. 6538), Pseudomonas aeruginosa (ATCC No. 9027), and Escherichia coli (ATCC No. 8739) incubated at 36° C. on nutrient agar […] 24 hours prior to testing. The test samples were incubated at 23° C. (room temperature) for the number of days indicated, after which an aliquot of the sample was taken and diluted stepwise to a 10^6 fold reduction in concentration. The diluted samples were plated out on tryptic soy agar and incubated for 48 hours at 36° C. After incubation, readings of the total number of colony forming units per gram (cfu/g) were made on the samples. Table 3 illustrates the levels at which the individual components Glydant®2000 and DHA are effective and ineffective against bacteria.

For assay [2] the test system is unchanged. The experiment in a line: Synergy at Day 14 (Kull method, QA/Qa+QB/Qb) from mixed bacteria challenge test. The format is cell-based. As to conditions: DHA alone. As to the method:
A synergistic effect is a response to a combination of two or more components that produce an effect greater than the sum of their individual effects. […] E. Kull et al., “Mixtures of Quaternary Ammonium Compounds and Long-chain Fatty Acids as Antifungal Agents”, Applied Microbiology, 9:538-541 (1961). The synergism value is determined by the formula: […]
where QA is the quantity of Compound A in mixture, producing an endpoint; Qa is the quantity of Compound a acting alone, producing an endpoint; QB is the concentration of Compound B in the mixture, producing an endpoint. Qb is the concentration of Compound b acting alone, producing an endpoint.
When the value of (QA/Qa+QB/Qb) is less than one, the mixture is synergistic. Values for (QA/Qa+QB/Qb) of 1 and greater than 1, represent an additive effect and an antagonistic effect, respectively. According to this method of measuring synergism, the quantity of each component in the various mixtures is compared with the quantity of pure component that is required to reach the same endpoint or to produce the same microbiological effect as the mixture. […]

Setting [3] is: 0.150% preservative as supplied.

Molecules are shown by their SMILES.

With `CC(=O)C1C(=O)C=C(C)OC1=O` (stereo not shown) [DHA, dehydroacetic acid], in assay [1] (setting [3]), the “Day 0 cfu/g.” value is 3.0 × 10^6 cfu/g, the “Day 7 cfu/g.” value is recorded as 8.0 × 10^3 cfu/g and the “Day 14 cfu/g.” value is 1.0 × 10^6 cfu/g. In assay [1] (0.20% preservative as supplied), the “Day 0 cfu/g.” value is 3.0 × 10^6 cfu/g, the “Day 7 cfu/g.” value was 1.0 × 10^3 cfu/g and the “Day 14 cfu/g.” value is reported as below 10 cfu/g. Moreover, the “Qb (concentration of Compound b acting alone, producing an endpoint)” value in assay [2] is 0.2%.

Source of the values: patent US20040102501A1, “Stable, low free formaldehyde, synergistic antimicrobial compositions of aldehyde donors and dehydroacetic acid” (priority 2002, published 2004).
